Source: patent US20130303487A1, “Compositions Comprising Zoledronic Acid or Related Compounds for Relieving Inflammatory Pain and Related Conditions” (priority 2012, published 2013)
Like-named read-outs stand apart in the source and are kept apart here.

Key:
[1] = system: inflammatory pain (mechanical hyperalgesia); assay type: in vivo, Sprague-Dawley rats
Procedure: The effect of orally administered zoledronic acid on inflammatory pain was examined using the rat complete Freund's adjuvant (CFA) model. Inflammatory pain was induced by injection of 100% CFA in a 75 μL volume into the left hind paws of Sprague-Dawley rats on day 0, followed by assessments on days 1-3. Animals were orally administered vehicle (control), zoledronic acid 18 mg/m^2 (or 3 mg/kg), zoledronic acid 120 mg/m^2 (or 20 mg/kg), or zoledronic acid 900 mg/m^2 (or 150 mg/kg) daily on days 1-3. Drug was dissolved in distilled water and prepared fresh daily. Animals were fasted prior to dosing. Under current FDA guidelines for extrapolating starting dosages from animals to humans, dosages expressed in mg/m^2 are considered equivalent between mammalian species. Thus, for example, 18 mg/m^2 in a rat is considered equivalent to 18 mg/m^2 in a human being, while 3 mg/kg in a rat may not be equivalent to 3 mg/kg in a human being.
Values for inflammatory pain (mechanical hyperalgesia) in the vehicle and drug-treated animals were obtained on day 0 prior to CFA injection, and at baseline and post-treatment on days 1-3. Pain was assessed using a digital Randall-Selitto device (dRS; IITC Life Sciences, Woodland Hills, Calif.). Animals were placed in a restraint sling that suspended the animal, leaving the hind limbs available for testing. Paw compression threshold was measured by applying increasing pressure to the plantar surface of the hind paw with a dome-shaped tip placed between the 3rd and 4th metatarsus. Pressure was applied gradually over approximately 10 seconds. Measurements were taken from the first observed nocifensive behavior of vocalization, struggle or withdrawal. A cut-off value of 300 g was used to prevent injury to the animal.
Reversal of inflammatory pain was calculated according to the formula:
% reversal=(Post-treatment−Post-CFA baseline)/(Pre-CFA baseline−Post-CFA baseline)×100.
The experiment was carried out using 9-10 animals per group.

[2] = system: complex regional pain syndrome (CRPS); experiment: rat tibia fracture model of complex regional pain syndrome (CRPS): von Frey, weight bearing, edema, warmth; assay type: in vivo; details: oral 18 mg/m^2/day (3 mg/kg/day) for 28 days
Procedure: The effect of orally administered zoledronic acid was examined in the rat tibia fracture model of complex regional pain syndrome (CRPS). CRPS was induced in the rats by fracturing the right distal tibias of the animals and casting the fractured hindpaws for 4 weeks, as described in Guo T Z et al. (Pain. 2004; 108:95-107).
Animals were orally administered either vehicle (control) or zoledronic acid, in a dosage of 18 mg/m^2/day (3 mg/kg/day) for 28 days, starting on the day of fracture and casting. Drug was dissolved in distilled water and administered by gavage. Animals were fasted for 4 hours before and 2 hours after dosing. At the end of the 28-day period, casts were removed, and on the following day, the rats were tested for hindpaw pain, edema, and warmth.
Pain was assessed by measuring hyperalgesia, and weight bearing. […]
An incapacitance device (IITC Inc. Life Science, Woodland, Calif., USA) was used to measure hindpaw weight bearing, a postural effect of pain. […] Eight readings (excluding the highest and lowest ones) were averaged to calculate the bilateral hindpaw weight-bearing values. Weight bearing data were analyzed as the ratio between right (fracture) and left hindpaw weight bearing values ((2R/(R+L))×100%). […]
The temperature of the hindpaw was measured using a fine wire thermocouple (Omega, Stanford, Conn., USA) applied to the paw skin. […]

O=P(O)(O)C(O)(Cn1ccnc1)P(=O)(O)O [zoledronic acid]
paw compression thresholds versus vehicle ([1]; oral 18 mg/m^2, entire measurement period after 30 minutes from start of treatment): higher than for vehicle | paw compression thresholds versus vehicle ([1]; oral 120 mg/m^2 (20 mg/kg), all time points): approximately equal or inferior to vehicle | toxicity ([1]; oral 900 mg/m^2 (150 mg/kg) daily days 1-3, two days after cessation of dosing): significant toxicity necessitating euthanization of all the animals in this group | paw compression thresholds versus vehicle ([1]; oral 900 mg/m^2, day three): greater than for vehicle | paw compression thresholds versus vehicle ([1]; two higher doses (120 and 900 mg/m^2), first two days of dosing): lower than vehicle | hindlimb weight bearing on fracture hindlimb [2]: 86 % of normal
